According to patent US6660501B2, “Production of proteins by cell culture” (Lonza Group, AG, priority 1986, dated 2003):

Tests used:
[1] = system: CBMG human growth hormone producing cells; assay: Production of recombinant human growth hormone by CBMG cells (immunoradiometric assay); assay type: cell-based; conditions: serum-free maintenance medium, control 1.0
Method: The molecular biology of adherent CBMG human growth hormone producing cells has been described (G. N. Pavlakis et al PNAS (USA) Vol. 80 pp 397-401 (1983)).
CBMG cells were inoculated into tissue culture flasks at a density of 0.7×10^5 cells/cm^2 in Dulbeccos Modified Eagles Minimum (DMEM) supplemented with 10% foetal calf serum.
After the cells in culture had grown to confluency, the DMEM serum supplemented medium was replaced by serum-free DMEM maintenance medium. Sodium butyrate was added at 1 mM and 5 mM after transferring the cells from serum supplemented medium to maintenance medium. Levels of human growth hormone in the culture supernatant were measured after 48 hours by immunoradiometric assay.

[2] = system: hybridoma cell line A; assay: Harvest antibody titre, hybridoma cell line A; assay type: cell-based; conditions: SFM, control 28
Method: (§1) Hybridoma cells were grown in suspension culture in either serum-free medium (see Example 1) or in DMEM supplemented with 10% (v/v), heat inactivated foetal calf serum. Cells were cultured in either roller bottles or in shake-flasks, as in Example 1. Sodium butyrate was added to cultures immediately after inoculation.

[3] = system: hybridoma cell line B; assay: Harvest antibody titre, hybridoma cell line B; assay type: cell-based; conditions: SFM + 10% FCS, control 173
Method: as §1

[4] = system: hybridoma cell line D; assay: Harvest antibody titre, hybridoma cell line D; assay type: cell-based; conditions: SFM + 10% FCS, control 29
Method: as §1

[5] = system: hybridoma cell line E; assay: Harvest antibody titre, hybridoma cell line E; assay type: cell-based; conditions: SFM, control 46
Method: as §1

[6] = system: hybridoma cell line G; assay: Harvest antibody titre, hybridoma cell line G; assay type: cell-based; conditions: SFM, control 10
Method: as §1

[7] = system: hybridoma cell line H; assay: Harvest antibody titre, hybridoma cell line H; assay type: cell-based; conditions: SFM, 0.50 mM butyrate, control 62
Method: as §1

[8] = system: hybridoma cell line I; assay: Harvest antibody titre, hybridoma cell line I; assay type: cell-based; conditions: DMEM + 5% FCS, control 113
Method: […] Cells were cultured in either roller bottles or in shake-flasks, as in Example 1. Sodium butyrate was added to cultures immediately after inoculation.

[9] = system: hybridoma cell line J; assay: Harvest antibody titre, hybridoma cell line J; assay type: cell-based
Method: as §1

[10] = system: Hybridoma cells; assay: Effect of sodium butyrate on a variety of hybridoma cell lines (summary statement); assay type: cell-based; conditions: butyrate added immediately after inoculation
Method: as §1

[11] = system: NT1/19 cells; assay: Effect of varying alkanoates on antibody production from hybridoma cells; assay type: cell-based; conditions: for AVERAGE DATA FROM EXP. #1 & #2: average of relative productivity, control 100.00; for PRODUCTIVITY EXP #2: control 2.39
Method: The IgM secreting mouse hybridoma cell line NB1/19 was grown in suspension culture in Dulbeccos Modified Eagles Minimum (DMEM) serum-free medium containing albumin, insulin, transferrin, gentamycin and other additives as required to cultivate cells in suspension culture. The NB1/19 cell line produces a mouse monoclonal antibody having specificity for an antigenic determinant of human B-type blood cells. The preparation of this call line is described in detail in the specification of British Patent GB 2097425B. It will be appreciated, however, that other hybridoma cell lines may be used in place of this particular cell line as appropriate in this and other examples.
The cells were grown to a viable cell density of 1.0-1.5×10^6 cells/ml. Viable cell density was determined by counting the number of cells which exclude trypan blue, a staining agent. A sample of the suspension culture was diluted in a serum-free medium to a density of about 1.3×10^5 cells/ml. Aliquots of 50 ml in volume were dispensed into shake flasks and sodium butyrate added at concentrations of 0.1 mM, 0.3 mM, 0.5 mM and 1.0 mM.
The shake flasks were gassed with 5% CO2-95% air, and sealed and incubated with shaking at 37° C. for up to 207 hours. (Table 1). Samples ([…]) were removed from the culture by pipette. 100 μl was used to determine viable cell count and the reminder centrifuged at 300×g for five minutes. Supernatants were stored at −20° C. prior to antibody determination by enzyme linked immunosorbent assay (ELISA).
NT1/19 cells were cultured as in Example 1. Varying straight chain sodium alkanoate salts (propionate, butyrate, bentanoate or hexanoate) were added to the inoculum at the concentrations indicated in Table 5.

[12] = system: mouse C127 cell line producing recombinant tissue plasminogen activator (tPA); assay: Production of recombinant tPA from C127 cell line on microcarriers (fibrin-agar method; nuclei count); assay type: cell-based; conditions: for CONCENTRATION OF TPA PER ML: control 100
Method: A mouse C127 cell line producing recombinant tissue plasminogen activator (tPA) was cultured on microcarriers (gelibeads, K. C. Biologicals) in spinner vessels (Bellco). The growth medium was DMEM supplemented with 10% foetal calf serum. The concentration of microcarriers were 5 grams (dryweight) per liter of medium. Calls were inoculated at a density of 1×10^5 cells per ml.
After the cells had grown to confluency on the surface of the microcarriers, growth medium was aspirated and replaced with a protein-free DMEM-based maintenance medium containing the butyrate. Control cultures received no butyrate.
Cell density was determined by counting nuclei which were released from cells by hypotonic lysis (ref. Absher, in “Tissue Culture Methods and Applications”, Kruse & Patterson. Academic Press 1973). The concentration of tPA in the supernatant was assayed using the fibrin-agar method.

[13] = system: HeLa-cell cultures; conditions: cited from earlier work
[14] = system: Syrian hamster cells with plasmid containing SV40 genome and HSV-TK gene; conditions: concentrations ranging from 1 mM to 5 mM; Yuan et al; cited from earlier work

CCCC(=O)[O-].[Na+] [sodium butyrate]
Concentration of hGH in supernatant ([1]; 1 mM sodium butyrate): 1.1 arbitrary units/48 hours
Concentration of hGH in supernatant ([1]; 5 mM sodium butyrate): 2.3 arbitrary units/48 hours
HARVEST ANTIBODY TITER ([2]; 0.35 mM butyrate): 35 mg/L
HARVEST ANTIBODY TITER ([2]; 0.50 mM butyrate): 36 mg/L
HARVEST ANTIBODY TITER ([3]; 0.35 mM butyrate): 232 mg/L
HARVEST ANTIBODY TITER ([3]; 0.50 mM butyrate): 240 mg/L
HARVEST ANTIBODY TITER ([4]; 0.35 mM butyrate): 39 mg/L
HARVEST ANTIBODY TITER ([4]; 0.50 mM butyrate): 50 mg/L
HARVEST ANTIBODY TITER ([5]; 0.35 mM butyrate): 56 mg/L
HARVEST ANTIBODY TITER ([5]; 0.50 mM butyrate): 86 mg/L
HARVEST ANTIBODY TITER ([6]; 0.25 mM butyrate): 11 mg/L
HARVEST ANTIBODY TITER ([6]; 0.50 mM butyrate): 13 mg/L
HARVEST ANTIBODY TITER [7]: 109 mg/L
HARVEST ANTIBODY TITER ([8]; 0.35 mM butyrate): 135 mg/L
HARVEST ANTIBODY TITER ([8]; 0.50 mM butyrate): 154 mg/L
HARVEST ANTIBODY TITER ([9]; DMEM + 10% FCS, 0.50 mM butyrate, control 32): 54 mg/L
HARVEST ANTIBODY TITER ([9]; DMEM + 10% FCS, 0.75 mM butyrate, control 32): 55 mg/L
HARVEST ANTIBODY TITER ([9]; SFM, 0.50 mM butyrate, control 37): 72 mg/L
HARVEST ANTIBODY TITER ([9]; SFM, 1.00 mM butyrate, control 37): 102 mg/L
amount of antibody produced per cell [10]: increased the amount of antibody produced per cell
AVERAGE DATA FROM EXP. #1 & #2 ([11]; 0.50 mM alkanoate): 204.39
PRODUCTIVITY EXP #2 ([11]; 0.50 mM alkanoate): 4.7 ug antibody per 10^5 cells
PRODUCTIVITY EXP. #1 ([11]; 0.50 mM alkanoate, control 3.30): 7.00 ug antibody per 10^5 cells
AVERAGE DATA FROM EXP. #1 & #2 ([11]; 1.00 mM alkanoate): 368.20
PRODUCTIVITY EXP #2 ([11]; 1.00 mM alkanoate): 8.80 ug antibody per 10^5 cells
CELL DENSITY ([12]; 0.5 mM butyrate, maintenance period 46 hours, control 10.8): 11.1 x10^5 cells/ml
CONCENTRATION OF TPA PER ML ([12]; 0.5 mM butyrate, maintenance period 46 hours): 159 arbitrary units
CELL DENSITY ([12]; 0.5 mM butyrate, maintenance period 92 hours, control 13.7): 10.3 x10^5 cells/ml
CONCENTRATION OF TPA PER ML ([12]; 0.5 mM butyrate, maintenance period 92 hours): 143 arbitrary units
CELL DENSITY ([12]; 0.5 mM butyrate, maintenance period 140 hours, control 19.1): 12.3 x10^5 cells/ml
CONCENTRATION OF TPA PER ML ([12]; 0.5 mM butyrate, maintenance period 140 hours): 186 arbitrary units
CELL DENSITY ([12]; 1.0 mM butyrate, maintenance period 46 hours, control 10.8): 11.5 x10^5 cells/ml
CONCENTRATION OF TPA PER ML ([12]; 1.0 mM butyrate, maintenance period 46 hours): 191 arbitrary units
CELL DENSITY ([12]; 1.0 mM butyrate, maintenance period 92 hours, control 13.7): 9.2 x10^5 cells/ml
CONCENTRATION OF TPA PER ML ([12]; 1.0 mM butyrate, maintenance period 92 hours): 157 arbitrary units
CELL DENSITY ([12]; 1.0 mM butyrate, maintenance period 140 hours, control 19.1): 9.4 x10^5 cells/ml
CONCENTRATION OF TPA PER ML ([12]; 1.0 mM butyrate, maintenance period 140 hours): 236 arbitrary units
CELL DENSITY ([12]; 2.5 mM butyrate, maintenance period 46 hours, control 10.8): 9.6 x10^5 cells/ml
CONCENTRATION OF TPA PER ML ([12]; 2.5 mM butyrate, maintenance period 46 hours): 945 arbitrary units
CELL DENSITY ([12]; 2.5 mM butyrate, maintenance period 92 hours, control 13.7): 7.6 x10^5 cells/ml
CONCENTRATION OF TPA PER ML ([12]; 2.5 mM butyrate, maintenance period 92 hours): 1782 arbitrary units
CELL DENSITY ([12]; 2.5 mM butyrate, maintenance period 140 hours, control 19.1): 6.6 x10^5 cells/ml
CONCENTRATION OF TPA PER ML ([12]; 2.5 mM butyrate, maintenance period 140 hours): 3468 arbitrary units
human choriogonadotropin synthesis ([13]; 1 mM, Ghosh et al, Cox & McClure): induce human choriogonadotropin synthesis
cell growth ([13]; butyrate treatment): inhibited cell growth
expression of SV40 and HSV-TK genes compared with control values [14]: inhibited the expression of both genes
